Key:
[1] = test system: mouse CAIA and CIA arthritis models; settings: cited from earlier work
[2] = test system: MRL/lpr lupus-prone mice; settings: cited from earlier work
[3] = test system: DSS-induced colitis model in mice; settings: cited from earlier work
[4] = test system: Th1/17 differentiation, B cell effector functions and production of inflammatory cytokines (IL-6, TNF-α, IL-23); settings: cited from earlier work
[5] = target: T1, β5c (chymotrypsin-like activity) (Homo sapiens, UniProt P20618+P28074); assay: Cell-Based Proteasome subunit activity/selectivity assay, β5c, substrate (WLA)2Rh110; settings: Ramos cells; substrate (WLA)2Rh110 (β5c); highest concentration tested 20 μM; read-out: Ic50:ramos:rh110-(wla)2
T1 construct: protease activity associated with the proteasome complex in cultured cells; endogenous in cells; host or cells: Ramos cells
How it was run: (§1)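 Subunit activity in cultured cells read with subunit-selective fluorogenic Rh110 substrates: (LLE)2 for β1c, (PAL)2 for β1i, (KQL)2 for β2c/2i, (WLA)2 for β5c. Cells exposed to 4-fold serially diluted compound (top 20 μM) 30 min at 37 °C, then substrate 120 min at room temperature; fluorescence 500/519 nm.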

[6] = test system: β 2c/2i (trypsin-like); assay: Cell-Based Proteasome subunit activity/selectivity assay, β2c/2i, substrate (KQL)2Rh110; settings: Ramos cells; substrate (KQL)2Rh110 (β2c/2i); highest concentration tested 20 μM
How it was run: as §1

[7] = target: T2, β 1i (caspase-like) (Homo sapiens, UniProt P28065+P40306); assay: Cell-Based Proteasome subunit activity/selectivity assay, β1i, substrate (PAL)2Rh110; settings: Ramos cells; substrate (PAL)2Rh110 (β1i); highest concentration tested 20 μM; read-out: Ic50:ramos:rh110-(pal)2
T2 construct: protease activity associated with the proteasome complex in cultured cells; endogenous in cells; host or cells: Ramos cells
How it was run: as §1

[8] = target: T3, β 1c (caspase-like) (Homo sapiens, UniProt P28072+Q99436); assay: Cell-Based Proteasome subunit activity/selectivity assay, β1c, substrate (LLE)2Rh110; settings: Ramos cells; substrate (LLE)2Rh110 (β1c); highest concentration tested 20 μM; read-out: Ic50:ramos:rh110-(lle)2
T3 construct: protease activity associated with the proteasome complex in cultured cells; endogenous in cells; host or cells: Ramos cells
How it was run: as §1

[9] = target: T4, β 5i (chymotrypsin-like activity) (Homo sapiens, UniProt P20618+P28062); assay: Cell-Based Proteasome subunit activity/selectivity assay, β5i, substrate (ANW)2Rh110; settings: Ramos cells; substrate (ANW)2Rh110 (β5i); highest concentration tested 20 μM; read-out: Ic50:ramos:ac-(anw)2-r110
T4 construct: protease activity associated with the proteasome complex in cultured cells; endogenous in cells; host or cells: Ramos cells
How it was run: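 Cell-based fluorogenic assay measuring chymotrypsin-like β5i proteasome activity using the substrate (ANW)2Rh110. Cultured cells received 0.5 μl of 100× 4-fold serial diluted compounds or DMSO per well, were incubated 30 minutes at 37° C, then equilibrated 15 minutes at room temperature. After shaking one minute @ 700 rpm and 120 min room-temperature incubation, fluorescence was read at 500 nm excitation/519 nm emission on an Envision reader.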

| Compound | disease score [1] | disease progression [2] | plasma cells numbers and levels of anti-dsDNA IgG [2] | inflammation and tissue destruction [3] | block of Th1/17 differentiation, B cell effector functions and production of inflammatory cytokines (IL-6, TNF-α, IL-23) [4] | IC50 [5] | IC50 [6] | IC50 [7] | IC50 [8] | IC50 [9] |
| --- | --- | --- | --- | --- | --- | --- | --- | --- | --- | --- |
| COc1ccc(C[C@H](NC(=O)[C@H](C)NC(=O)CN2CCOCC2)C(=O)N[C@@H](Cc2ccccc2)C(=O)[C@@]2(C)CO2)cc1 [PR-957] | significantly decrease disease score | prevented disease progression | reduced plasma cells numbers and levels of anti-dsDNA IgG | reduced inflammation and tissue destruction | potently block | – | – | – | – | – |
| CCc1ccc(C(C#N)NC(=O)c2cn(CCNC(=O)c3cc(S(C)(=O)=O)ccc3OC)nn2)cc1 (stereo not drawn) [Example 42, 1-[2-(5-Methanesulfonyl-2-methoxy-benzoylamino)-ethyl]-1H-[1,2,3]triazole-4-carboxylic acid [cyano-(4-ethyl-phenyl)-methyl]-amide] | – | – | – | – | – | ≥ 20 µM | ≥ 20 µM | ≥ 20 µM | ≥ 20 µM | 3.15 µM |
| COc1ccc(C(=O)NCCn2cc(C(=O)NCc3ccc(Cl)cc3)nn2)c(OC)c1OC [Example 5, 1-[2-(2,3,4-Trimethoxy-benzoylamino)-ethyl]-1H-[1,2,3]triazole-4-carboxylic acid 4-chloro-benzylamide] | – | – | – | – | – | ≥ 20 µM | ≥ 20 µM | ≥ 20 µM | ≥ 20 µM | 6.49 µM |
